Results: publication PMC12858634, “Functional characterisation of Target of Rapamycin (TOR) signalling in Physcomitrella” (Plant Cell Reports, 2026)

Target: T1, PpFKBP12 (Physcomitrium patens, UniProt A0A2K1L9Z1, M56K/G57Q/R58E)
T1 construct: gene LOC112274967
Test: yeast fkbp12 deletion complementation, growth spot assay
Assay type: cell-based
Settings: rapamycin 100 or 200 nM, galactose medium, 30 °C, 5 days; acts as FKBP12-rapamycin complex on host yeast TOR

T1 sequence (A0A2K1L9Z1 entry or part of it M56K/G57Q/R58E): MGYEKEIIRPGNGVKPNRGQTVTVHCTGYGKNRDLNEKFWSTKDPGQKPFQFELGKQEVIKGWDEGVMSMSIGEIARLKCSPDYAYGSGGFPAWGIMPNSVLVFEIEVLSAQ

For `CO[C@H]1C[C@@H]2CC[C@@H](C)[C@@](O)(O2)C(=O)C(=O)N2CCCC[C@H]2C(=O)O[C@H]([C@H](C)C[C@@H]2CC[C@@H](O)[C@H](OC)C2)CC(=O)[C@H](C)/C=C(\C)[C@@H](O)[C@@H](OC)C(=O)[C@H](C)C[C@H](C)/C=C/C=C/C=C/1C` [rapamycin], the “yeast fkbp12 deletion complementation, growth spot assay” value was “all but PpFKBP12^W40D complemented the rapamycin-resistant phenotype of fkbp12Δ cells”.
